Test results: patent publication US20230011571A1, “SMALL MOLECULE FURIN INHIBITORS FOR TREATING INFECTIOUS DISEASES” (BP Asset V, Inc., priority 2019, published 2023)

Key:
Format in all cases: cell-based
[1] = system: Chikungunya virus (CHIKV); assay: microbe, parasite or virus in culture; conditions: Chikungunya virus, Vero, 48 h, read-out: Percent viral inhibition CHKV
[2] = system: dengue virus (DENV); assay: microbe, parasite or virus in culture; conditions: Dengue virus, Vero, 120 h, read-out: Percent viral inhibition DENY
[3] = system: Marburg virus (MARV); assay: organism not typed; conditions: Vero, 72 h, read-out: Percent viral inhibition MARV

SMILES: CC(=O)NCC1CCN(Cc2cc(Oc3ccc(N4CCN(CCC(=O)O)[C@@H](C)C4)nc3)nc(-c3cc(Cl)cc(Cl)c3)c2)CC1 [Example 186]
- inhibition at 1 µM [1]: 19.9%
- inhibition at 1 µM [2]: 53.9%
- inhibition at 1 µM [3]: 30.6%

SMILES: O=C(O)CC1CCN(Cc2cc(Oc3ccc(N4C[C@@H]5C[C@H]4CN5)nc3)nc(-c3cc(Cl)cc(Cl)c3)c2)CC1 [Example 187, 2-(1-((2-((6-((1S,4S)-2,5-diazabicyclo[2.2.1]heptan-2-yl)pyridin-3-yl)oxy)-6-(3,5-dichlorophenyl)pyridin-4-yl)methyl)piperidin-4-yl) acetic acid]
- inhibition at 1 µM [1]: 22.4%
- inhibition at 1 µM [2]: 84%
- inhibition at 1 µM [3]: 24.1%

SMILES: CC(=O)NCC1CCN(Cc2cc(Oc3ccc(N4CCCN(CCC(=O)O)CC4)nc3)nc(-c3cc(Cl)cc(Cl)c3)c2)CC1 [Example 190, 3-(4-(5-((4-((4-(acetamidomethyl)piperidin-1-yl)methyl)-6-(3,5-dichlorophenyl)pyridin-2-yl)oxy)pyridin-2-yl)-1,4-diazepan-1-yl)propanoic acid]
- inhibition at 1 µM [1]: 2.11%
- inhibition at 1 µM [2]: 41.8%
- inhibition at 1 µM [3]: 44.8%

SMILES: CC(=O)NCC1CCN(Cc2cc(Oc3ccc(N4CCN(CCC(=O)O)C(C)(C)C4)nc3)nc(-c3cc(Cl)cc(Cl)c3)c2)CC1 [Example 191]
- inhibition at 1 µM [1]: 14.2%
- inhibition at 1 µM [2]: 71.2%
- inhibition at 1 µM [3]: 50.6%

SMILES: CC(=O)NCC1CCN(Cc2cc(Oc3ccc(N4CCNC(CO)C4)nc3)nc(-c3cc(Cl)cc(Cl)c3)c2)CC1 (stereo not drawn) [Example 195, N-((1-((2-(3,5-dichlorophenyl)-6-((6-(3-(hydroxymethyl)piperazin-1-yl)pyridin-3-yl)oxy)pyridin-4-yl)methyl)piperidin-4-yl)methyl)acetamide]
- inhibition at 1 µM [1]: 18.1%
- inhibition at 1 µM [2]: 39.4%
- inhibition at 1 µM [3]: 38.2%

SMILES: CC(=O)NCC1CCN(Cc2cc(Oc3ccc(N4CCC5(CCNC5)C4)nc3)nc(-c3cc(Cl)cc(Cl)c3)c2)CC1 (stereo not drawn) [Example 199, N-((1-((2-((6-(2,7-diazaspiro[4.4]-nonan2-yl)pyridin-3-yl)oxy)-6-(3,5-dichlorophenyl)pyridin-4-yl)methyl)piperidin-4-yl)methyl)acetamide]
- inhibition at 1 µM [1]: 21.6%
- inhibition at 1 µM [2]: 49%
- inhibition at 1 µM [3]: 18.5%

SMILES: CN1C[C@@H]2C[C@H]1CN2c1ccc(Oc2cc(CN3CCC(CC(=O)O)CC3)cc(-c3cc(Cl)cc(Cl)c3)n2)cn1 [Example 203, 2-(1-((2-(3,5-dichlorophenyl)-6-((6-((1S,4S)-5-methyl-2,5-diazabicyclo[2.2.1]heptan-2-yl)pyridin-3-yl)oxy)pyridin-4-yl)methyl)piperidin-4-yl)acetic acid]
- inhibition at 1 µM [1]: 23.6%
- inhibition at 1 µM [2]: 7.17%
- inhibition at 1 µM [3]: 55.2%

SMILES: CC(CCN1CCN(c2ncc(Oc3cc(CN4CCC(CC(=O)O)CC4)cc(-c4cc(Cl)cc(Cl)c4)n3)cn2)CC1)S(C)(=O)=O (stereo not drawn) [Example 205, 2-(1-((2-(3,5-dichlorophenyl)-6-((2-(4-(3-(methylsulfonyl)butyl)piperazin-1-yl)pyrimidin-5-yl)oxy)pyridin-4-yl)methyl)piperidin-4-yl)acetic acid]
- inhibition at 1 µM [1]: 23.7%
- inhibition at 1 µM [2]: 57.6%
- inhibition at 1 µM [3]: 77.6%

SMILES: O=C(O)CC1CCN(Cc2cc(Oc3cnc(N4CCNCC4)nc3)nc(-c3cc(Cl)cc(Cl)c3)c2)CC1 [Example 206, 2-(1-((2-(3,5-dichlorophenyl)-6-((2-(piperazin-1-yl)pyrimidin-5-yl)oxy)pyridin-4-yl)methyl)piperidin-4-yl)acetic acid]
- inhibition at 1 µM [1]: 34.4%
- inhibition at 1 µM [2]: 29.3%
- inhibition at 1 µM [3]: 50.8%

SMILES: CN1CCN(c2ncc(Oc3cc(CN4CCC(CC(=O)O)CC4)cc(-c4cc(Cl)cc(Cl)c4)n3)cn2)CC1 [Example 207, 2-(1-((2-(3,5-dichlorophenyl)-6-((2-(4-methylpiperazin-1-yl)pyrimidin-5-yl)oxy)pyridin-4-yl)methyl)piperidin-4-yl)acetic acid]
- inhibition at 1 µM [1]: 26.3%
- inhibition at 1 µM [2]: 47.9%
- inhibition at 1 µM [3]: 42.2%

SMILES: CNC(=O)OCC1CCN(Cc2cc(Oc3cnc(N4CCN(C(C)CCC(=O)O)CC4)nc3)nc(-c3cc(Cl)cc(Cl)c3)c2)CC1 (stereo not drawn) [Example 208, 4-(4-(5-((6-(3,5-dichlorophenyl)-4-((4-(((methylcarbamoyl)oxy)methyl)piperidin-1-yl)methyl)pyridin-2-yl)oxy)pyrimidin-2-yl)piperazin-1-yl)pentanoic acid]
- inhibition at 1 µM [1]: 46.3%
- inhibition at 1 µM [2]: 68.6%
- inhibition at 1 µM [3]: 55.2%

SMILES: CNC(=O)OCC1CCN(Cc2cc(Oc3cnc(N4CCN(CCCS(C)(=O)=O)CC4)nc3)nc(-c3cc(Cl)cc(Cl)c3)c2)CC1 [Example 210, (1-((2-(3,5-dichlorophenyl)-6-((2-(4-(3-(methylsulfonyl)propyl)piperazin-1-yl)pyrimidin-5-yl)oxy)pyridin-4-yl)methyl)piperidin-4-yl)methylmethylcarbamate]
- inhibition at 1 µM [1]: 3.75%
- inhibition at 1 µM [2]: 21%
- inhibition at 1 µM [3]: 32.6%

SMILES: CNC(=O)OCC1CCN(Cc2cc(Oc3cnc(N4CCN(C5CC(C(=O)O)C5)CC4)nc3)nc(-c3cc(Cl)cc(Cl)c3)c2)CC1 (stereo not drawn) [Example 211, 3-(4-(5-((6-(3,5-dichlorophenyl)-4-((4-(((methylcarbamoyl)oxy)methyl)piperidin-1-yl)methyl)pyridin-2-yl)oxy)pyrimidin-2-yl)piperazin-1-yl)cyclobutanecarboxylic acid]
- inhibition at 1 µM [1]: 44.7%
- inhibition at 1 µM [2]: 13.3%
- inhibition at 1 µM [3]: 62.5%

SMILES: CC(CC1CCN(Cc2cc(Oc3ccc(N4CCN(C)CC4)nc3)nc(-c3cc(Cl)cc(Cl)c3)c2)CC1)C(=O)O (stereo not drawn) [Example 213, 3-(1-((2-(3,5-dichlorophenyl)-6-((6-(4-methylpiperazin-1-yl)pyridin-3-yl)oxy)pyridin-4-yl)methyl)piperidin-4-yl)-2-methylpropanoic acid]
- inhibition at 1 µM [1]: 26.5%
- inhibition at 1 µM [2]: 28%
- inhibition at 1 µM [3]: 49.3%

SMILES: CC(=O)NCC1CCN(Cc2cc(Oc3cnc(N4CCN(C(C)CCC(=O)O)CC4)nc3)nc(-c3cc(Cl)cc(Cl)c3)c2)CC1 (stereo not drawn) [Example 215, 4-(4-(5-((4-((4-(acetamidomethyl)piperidin-1-yl)methyl)-6-(3,5-dichlorophenyl)pyridin-2-yl)oxy)pyrimidin-2-yl)piperazin-1-yl)pentanoic acid]
- inhibition at 1 µM [1]: 32.5%
- inhibition at 1 µM [2]: 24.4%
- inhibition at 1 µM [3]: 56.7%

SMILES: CC(=O)NCC1CCN(Cc2cc(Oc3cnc(N4CCN(C5CC(C(=O)O)C5)CC4)nc3)nc(-c3cc(Cl)cc(Cl)c3)c2)CC1 (stereo not drawn) [Example 216]
- inhibition at 1 µM [1]: 21.4%
- inhibition at 1 µM [2]: 8.34%
- inhibition at 1 µM [3]: 38.5%

SMILES: CNC(=O)NCC1CCN(Cc2cc(Oc3cnc(N4CCN(C5CC(C(=O)O)C5)CC4)nc3)nc(-c3cc(Cl)cc(Cl)c3)c2)CC1 (stereo not drawn) [Example 221, 3-(4-(5-((6-(3,5-dichlorophenyl)-4-((4-((3-methylureido)methyl)piperidin-1-yl)methyl)pyridin-2-yl)oxy)pyrimidin-2-yl)piperazin-1-yl) cyclobutanecarboxylic acid]
- inhibition at 1 µM [1]: 44.4%
- inhibition at 1 µM [2]: 25.9%
- inhibition at 1 µM [3]: 63.2%

SMILES: COC(=O)NCC1CCN(Cc2cc(Oc3cnc(N4CCN(C(C)CCC(=O)O)CC4)nc3)nc(-c3cc(Cl)cc(Cl)c3)c2)CC1 (stereo not drawn) [Example 222, 4-(4-(5-((6-(3,5-dichlorophenyl)-4-((4-(((methoxycarbonyl)amino)methyl)piperidin-1-yl)methyl)pyridin-2-yl)oxy)pyrimidin-2-yl)piperazin-1-yl)pentanoic acid]
- inhibition at 1 µM [1]: 25%
- inhibition at 1 µM [2]: 17.6%
- inhibition at 1 µM [3]: 60%

SMILES: CN1CCN(c2ncc(Oc3cc(CN4CC[C@@H]5[C@H](CC4)[C@H]5CC(=O)O)cc(-c4cc(Cl)cc(Cl)c4)n3)cn2)CC1 [Example 224, 2-((1R,7S,8r)-4-((2-(3,5-dichloro-phenyl)-6-((2-(4-methylpiperazin-1-yl)pyrimidin-5-yl)oxy)pyridin-4-yl)methyl)-4-azabicyclo[5.1.0]octan-8-yl)acetic acid]
- inhibition at 1 µM [1]: 33.1%
- inhibition at 1 µM [2]: 72%
- inhibition at 1 µM [3]: 52.3%

SMILES: CN1CCN(c2ncc(Oc3cc(CN4CCC(OC(C)(C)C(=O)O)CC4)cc(-c4cc(Cl)cc(Cl)c4)n3)cn2)CC1 [Example 225, 2-((1-((2-(3,5-dichlorophenyl)-6-((2-(4-methylpiperazin-1-yl)pyrimidin-5-yl)oxy)pyridin-4-yl)methyl)piperidin-4-yl)oxy)-2-methylpropanoic acid]
- inhibition at 1 µM [1]: 24.2%
- inhibition at 1 µM [2]: 33.3%
- inhibition at 1 µM [3]: 52.3%

SMILES: CN1CCN(c2ncc(Oc3cc(CN4CCC(CC(=O)O)CC4)cc(-c4cc(Cl)cc(Cl)c4)n3)cn2)CC(O)C1 (stereo not drawn) [Example 226, 2-(1-((2-(3,5-dichlorophenyl)-6-((2-(6-hydroxy-4-methyl-1,4-diazepan-1-yl)pyrimidin-5-yl)oxy)pyridin-4-yl)methyl)piperidin-4-yl)acetic acid]
- inhibition at 1 µM [1]: 26.7%
- inhibition at 1 µM [2]: 58.9%
- inhibition at 1 µM [3]: 41.4%

SMILES: CN(C)C1CCN(c2ncc(Oc3cc(CN4CCC(CC(=O)O)CC4)cc(-c4cc(Cl)cc(Cl)c4)n3)cn2)CC1 [Example 227, 2-(1-((2-(3,5-dichlorophenyl)-6-((2-(4-(dimethylamino)piperidin-1-yl)pyrimidin-5-yl)oxy)pyridin-4-yl)methyl)piperidin-4-yl)acetic acid]
- inhibition at 1 µM [1]: 40.5%
- inhibition at 1 µM [2]: 54%
- inhibition at 1 µM [3]: 54.5%

SMILES: CN1C2CC1CN(c1ncc(Oc3cc(CN4CCC(CC(=O)O)CC4)cc(-c4cc(Cl)cc(Cl)c4)n3)cn1)C2 [Example 228, 2-(1-((2-(3,5-dichlorophenyl)-6-((2-(6-methyl-3,6-diazabicyclo[3.1.l]heptan-3-yl)pyrimidin-5-yl)oxy)pyridin-4-yl)methyl)piperidin-4-yl)acetic acid]
- inhibition at 1 µM [1]: 17.3%
- inhibition at 1 µM [2]: 31.9%
- inhibition at 1 µM [3]: 36.2%
